Experimental findings from PMC12274187, “Novel polycyclic meroterpenoids with protein tyrosine phosphatase 1B inhibitory activity isolated from desert-derived fungi Talaromyces sp. HMT-8” (Natural Products and Bioprospecting, 2025) are described below.

The term IC50 denotes the point on the concentration scale where inhibition reaches its midpoint.

Each structure is given as a SMILES string. Where “and” joins values, the source holds several entries; their conditions need not be identical. Identical values can stand only once.

Test [1] has as its target T1, PTP1B (Homo sapiens, UniProt P18031).
T1 sequence (P18031 1-435): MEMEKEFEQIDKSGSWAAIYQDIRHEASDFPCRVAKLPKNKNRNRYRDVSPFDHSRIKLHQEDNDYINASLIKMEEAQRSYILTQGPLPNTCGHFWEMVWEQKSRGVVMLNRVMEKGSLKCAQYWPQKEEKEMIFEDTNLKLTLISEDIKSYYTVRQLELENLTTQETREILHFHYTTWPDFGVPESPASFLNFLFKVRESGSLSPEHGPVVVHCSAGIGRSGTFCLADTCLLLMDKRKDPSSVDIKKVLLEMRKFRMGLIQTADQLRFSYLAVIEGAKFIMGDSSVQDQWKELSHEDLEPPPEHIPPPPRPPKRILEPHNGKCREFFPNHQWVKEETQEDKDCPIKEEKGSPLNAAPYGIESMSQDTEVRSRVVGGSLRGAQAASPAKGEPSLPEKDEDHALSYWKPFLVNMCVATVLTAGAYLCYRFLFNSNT
Put plainly: PTP1B inhibitory assay (p-NPP substrate). It counts as biochemical. Particulars: absorbance at 405 nm, mean ± SD, three independent experiments, read-out: IC50 against PTP1B. The procedure:
The p-nitrophenyl phosphate (p-NPP) was used as a substrate to evaluate enzyme inhibition assays, following a previously established protocol. The final assay volume was 100 μL. The 75 μL reaction buffer containing 50 mM HEPES, 100 mM NaCl, 1 mM EDTA, and 1 mM dithiothreitol, 10 μL protein, and 5 μL sample were added to a 96-well plate and incubated at room temperature for 15 min. Subsequently, 10 μL of reaction buffer containing p-NPP was added to the reaction system. Sodium orthovanadate (Na₃VO₄) and dimethyl sulfoxide (DMSO) were used as the positive and negative controls, respectively. Enzymatic activity was determined by measuring absorbance at 405 nm. The half-maximal inhibitory concentration (IC₅₀) values were obtained from three independent experiments. The percentage of inhibition was calculated using the following equation: ODcontrol-ODblank-ODcompound-ODblank/ODcontrol-ODblank×100%

For test [2], the target named is T1, PTP1B. As to the kind of experiment: Inhibition kinetic analysis (Lineweaver–Burk). It counts as biochemical. Particulars: for Type of inhibition of PTP1B: Lineweaver–Burk double-reciprocal plot; for Vmax in presence of compound: p-NPP substrate, increasing inhibitor concentration. How it is done:
The experimental procedure followed that described in the enzyme inhibition assay. The data were represented using Lineweaver–Burk double-reciprocal plots. The inhibition constants (Ki and Kis) were determined from the secondary plots of the slopes and intercepts derived from the Lineweaver–Burk plots.

As to `CC1Cc2c3c(cc(O)c2C(=O)O1)OC1(C)CCC(O)C2(C)CCC(=O)OC12C3` (stereo not drawn) [Compound 1, talarine K], at PTP1B [1], the IC50 was 16.5 ± 0.6 µM. For the compound `CC(=O)O[C@@H]1c2c3c(cc(O)c2C(=O)O[C@@H]1C)O[C@]1(C)CCC(=O)[C@]2(C)CC=C(C(C)C)O[C@]12C3` [Compound 12, talaromyolide J], on PTP1B [2], the “Type of inhibition of PTP1B” value is recorded as “competitive inhibitors” and the “Vmax in presence of compound” value is “unchanged”. Besides, the IC50 at PTP1B [1] came to 3.03 ± 2.25 µM. In the same order, the values of `CC1Cc2c3c(cc(O)c2C(=O)O1)OC1(C)CCC(=O)C2(C)CC=C(C(C)(C)O)OC12C3` (stereo not drawn) [Compound 2, talarine L] are “competitive inhibitors”, “unchanged” and 1.74 ± 3.81 µM. As to `CC(=O)OC1c2c3c(c(Cl)c(O)c2C(=O)OC1C)OC1(C)CCC2(O)OC4(C(C)(C)O)CCC2(C)C1(C3)O4` (stereo not drawn) [Compound 5, talarine O], the IC50 at PTP1B [1] was 6.57 ± 1.47 µM. For the compound `COC1(C(C)C)CCC2(C)C(=O)CCC3(C)Oc4cc(O)c5c(c4CC32O1)C(OC(C)=O)C(C)OC5=O` (stereo not drawn) [Compound 4, talarine N], the IC50 on PTP1B [1] was found to be 8.54 ± 1.52 µM. On the same count and under the same terms, the value for `COC1(C(C)C)CCC2(C)C(=O)CCC3(C)Oc4c(Cl)c(O)c5c(c4CC32O1)CC(C)OC5=O` (stereo not drawn) [Compound 3, talarine M] was 8.54 µM and 17.6 µM; that for `CC1OC(=O)c2c(O)c(Cl)c3c(c2C1O)CC12OC4(O)CCC1(C)C(O)(CCC2(C)O3)C4(C)C` (stereo not drawn) [Compound 7, talarine Q] was 15.6 ± 1.6 µM; that for `CC1Cc2c3c(c(Cl)c(O)c2C(=O)O1)OC1(C)CCC2(O)OC4(C(C)(C)O)CCC2(C)C1(C3)O4` (stereo not drawn) [Compound 6, talarine P] was 14.3 ± 0.86 µM.
